In publication PMC9022229, “Induction of Paraptosis by Cyclometalated Iridium Complex-Peptide Hybrids and CGP37157 via a Mitochondrial Ca^2+ Overload Triggered by Membrane Fusion between Mitochondria and the Endoplasmic Reticulum” (Biochemistry, 2022):
Residues, ends and D or L forms follow the SMILES beside them. *: point of attachment. X1 = O=C(COc1ccc(-c2ccccn2)cc1)NCCCCCCCCN*

Key:
Type in all cases: cell-based
mitofusin 2 (MFN2) = test: Western blot analysis of MFN2 in Jurkat cells
Experimental: In a 1.5 mL Eppendorf tube, Jurkat cells (1.0 × 10^6 cells) were incubated in the presence of 4 ([…]), CGP37157 (100 μM for 0–24 h or 0–100 μM for 12 h), and celastrol (0–10 μM for 24 h or 1 μM for 0–24 h) at 37 °C under 5% CO2. After the cells had been washed twice with PBS, the proteins were extracted by using RIPA buffer (Nacalai Tesque) and quantified using a Pierce BCA Protein Assay Kit (Thermo Scientific). Proteins (7.5 μg/well) for MFNs and DRP1 and proteins (5.0 μg/well) for GAPDH were used for sodium dodecyl sulfate–polyacrylamide gel electrophoresis (SDS–PAGE) (7.5% for MFNs and DRP1 and 10% for GAPDH) (Bio-Rad). After SDS–PAGE, the proteins were transferred to a polyvinylidene fluoride membrane (Merck Millipore) by using a semi dry blotter (Bio-Rad). The membrane was blocked with Blocking One solution (Nacalai Tesque) for 30 min at room temperature. After being blocked, the membrane was washed three times with 1× TBST and treated with primary antibodies overnight (at a dilution of 1/1000 for MFNs and DRP1 or 1/2000 for GAPDH) in a signal enhancer HIKARI-solution A (Nacalai Tesque). The membrane was washed three times with 1× TBST and treated with the anti-mouse or anti-rabbit IgG HRP-conjugated secondary antibody (at a dilution of 1/4000 for MFNs and DRP1 or 1/10000 for GAPDH) in 1× TBST for 60 min at room temperature. The protein signal was spotted with a Chemi-Lumi One Ultra solution (Nacalai Tesque) using the ChemiDoc MP system (Bio-Rad). […]

Jurkat cells [1] = test: TEM analysis of cytoplasmic vacuolization
Experimental: The morphological changes in Jurkat cells induced by CGP37157 (Figure 3B) were similar to those induced by 4 (Figure 1B) and confirmed in detail by TEM (transmission electron microscopy). Jurkat cells were treated with CGP37157 (100 μM) for 12 h, prefixed with glutaraldehyde and postfixed with osmium tetroxide (OsO4), and included in Poly 812 resin. The resulting samples were sliced and then observed by TEM. […] Similar TEM images were reported with respect to paraptosis-inducing natural compounds by some research groups: (i) paraptosis in MDA-MB 435S cells,[17] HeLa cells,[18] and Jurkat cells (Figure 4d and in our previous publications)[56]−[58] induced by celastrol, (ii) paraptosis in HeLa cells induced by 8-p-hydroxybenzoyl tovarol,[23] and (iii) paraptosis in A2780 cells and SKOV-3 cells induced by morusin.[22] Therefore, we believe that Jurkat cells undergo vacuolization in the paraptotic processes induced by 4 and CGP37157, as well as celastrol.
In a 1.5 mL Eppendorf tube, Jurkat cells (3.0 × 10^6 cells) were incubated with 4 (5 μM for 3 h), CGP37157 (100 μM for 12 h), and celastrol (1 μM for 24 h) in 10% FBS/RPMI 1640 medium at 37 °C under 5% CO2. After centrifugation (2000 rpm, 3 min, 4 °C), the cells were washed twice with PBS, prefixed with glutaraldehyde (2.5%) at 4 °C for 40 min, and then washed twice with PBS. Osmium tetroxide (1%) was used for postfixation, and the solution was incubated at 4 °C for 30 min. The cells were washed with PBS, included in an agarose gel, and dehydrated by using 50–100% and anhydrous EtOH. The cells were embedded into Poly 812 resin (Nisshin EM Co. Ltd.) at 60 °C for 3 days. The resin was sliced with a glass knife (150 nm thickness) on an ultramicrotome (EM UC6, Leica), and the samples were stained with EM stainer (Nisshin EM Co. Ltd.) and observed on TEM instrument (H-7650, Hitachi) with electron irradiation at 100 kV.

Jurkat cells [2] = test: Mitochondrial Ca2+ by flow cytometry with Rhod-2
Experimental: Other characteristic phenomena of paraptosis such as a mitochondrial Ca^2+ overload and loss of mitochondrial membrane potential (ΔΨm) induced by CGP37157 were also examined. Intracellular Ca^2+ concentrations were measured by flow cytometry using red-emitting Ca^2+ probes, Rhod-2 (a mitochondrial Ca^2+ probe) and Rhod-4 (a cytosolic Ca^2+ probe). Jurkat cells were stained with Rhod-2/AM or Rhod-4/AM (at 5 μM) and then treated with CGP37157 (100 μM) or 4 (5 μM) for a given period of incubation, immediately after which the emission intensity of Rhod-2 and Rhod-4 was measured by flow cytometry. […]
In a 1.5 mL Eppendorf tube, Jurkat cells (2.0 × 10^5 cells) were incubated in the presence of Rhod-2/AM (5 μM, 100 μL) or Rhod-4/AM (5 μM, 100 μL) in 10% FBS/RPMI 1640 medium for 30 min at 37 °C under 5% CO2 and then treated with 4 (5 μM, 0–30 min) or CGP37157 (100 μM, 0–6 h) in 10% FBS/RPMI 1640 medium (100 μL) for 30 min at 37 °C under 5% CO2. Immediately after the treatment, 10% FBS/RPMI 1640 medium (300 μL) was added to the cells and the samples were analyzed on a flow cytometer (FACSCalibur cytometer, Becton). The data were analyzed on FlowJo software (FlowJo, LCC).

SMILES | Expression level of MFN2 (Figure 11B) (mitofusin 2 (MFN2); CGP37157 100 μM, 1–6 h) | MFN2 band intensity relative to absence of compound (mitofusin 2 (MFN2); Figure S8B, CGP37157 10 µM, 12 h) | MFN2 band intensity relative to absence of compound (mitofusin 2 (MFN2); Figure S8B, CGP37157 20 µM, 12 h) | MFN2 band intensity relative to absence of compound (mitofusin 2 (MFN2); Figure S8B, CGP37157 50 µM, 12 h) | MFN2 band intensity relative to absence of compound (mitofusin 2 (MFN2); Figure S8B, CGP37157 80 µM, 12 h) | MFN2 band intensity relative to absence of compound (mitofusin 2 (MFN2); Figure S8B, CGP37157 100 µM, 12 h) | Morphological change by TEM (Jurkat cells [1]; CGP37157 100 μM, 12 h) | Emission intensity of Rhod-2 (mitochondrial Ca2+) (Jurkat cells [2]; CGP37157 100 μM, 6 h after treatment) | Expression level of MFN2 (Figure 11A) (mitofusin 2 (MFN2); 4 at 5 μM, 30 min to 1 h) | MFN2 band intensity relative to absence of compound (mitofusin 2 (MFN2); Figure S8A, 4 at 1 µM, 1 h per legend) | MFN2 band intensity relative to absence of compound (mitofusin 2 (MFN2); Figure S8A, 4 at 2.5 µM, 1 h per legend) | MFN2 band intensity relative to absence of compound (mitofusin 2 (MFN2); Figure S8A, 4 at 5 µM, 1 h per legend) | MFN2 band intensity relative to absence of compound (mitofusin 2 (MFN2); Figure S8A, 4 at 10 µM, 1 h per legend) | MFN2 band intensity relative to absence of compound (mitofusin 2 (MFN2); Figure S8A, 4 at 20 µM, 1 h per legend) | Morphological change by TEM (Jurkat cells [1]; 4 at 5 μM, 3 h) | Emission intensity of Rhod-2 (mitochondrial Ca2+) (Jurkat cells [2]; 4 at 5 μM, 10–30 min after treatment)
O=C1CSC(c2ccccc2Cl)c2cc(Cl)ccc2N1 (stereo not shown) [CGP37157] | weakly changed | 1.1 | 1.6 | 1.4 | 1.2 | 0.95 | cytoplasmic vacuolization | enhanced | – | – | – | – | – | – | – | –
NCCCC[C@H](NC(=O)[C@H](CCCCN)NC(=O)[C@@H](N)CCCCN)C(=O)NCC(=O)NCC(=O)NCCCCCCCCNC(=O)COc1ccc(-c2ccccn2)cc1 [compound 4] (H-KKKGG-X1) | – | – | – | – | – | – | – | – | weakly changed | 1.3 | 1.3 | 1.4 | 1.4 | 1.3 | cytoplasmic vacuolization | enhanced
